Key:
[1] = target: wildtype STAT3 protein (Homo sapiens, UniProt P40763); assay: Fluorescence polarization competitive binding, STAT3; conditions: FP; converted from IC50 with Equation 1
Description: Binding of compounds of the disclosure to the STAT5b SH2 domain was assessed using fluorescence polarization assays similar to those previously reported.^15 Analogous assays were also performed with STAT3 protein to determine the specificity of the compounds (13a-d). Fluorescence assays were performed in flat black 384-well plates (Corning) and fluorescence polarization measurements were taken with the Infinite M1000 machine (Tecan, Crailsheim, Germany). The buffer conditions for all assays were 20 mM HEPES, 50 mM NaCl, 1 mM EDTA, 2 mM dithiothreitol, pH 7.5 and the final DMSO concentration in the wells was kept constant at 10%.
Calibration curves for the wildtype STAT3 and STAT5b proteins were derived by incubating a 10 nM final concentration of fluoresceinated-phosphopeptide (5-FAM-pYLPQTC (SEQ ID NO:1) and 5-FAM-GpYLVLDKW (SEQ ID NO:2) for STAT3 and STAT5B, respectively), which are known to bind the SH2 domains, with increasing concentrations of protein (as shown in FIG. 3). The point at which 80% of the fluoresceinated-phosphopeptide was bound was used as the optimal protein concentration required for the competitive fluorescent polarization assays.
For the STAT5b fluorescence polarization assays, the 5-FAM-GpYLVLDKW (SEQ ID NO:2) peptide and STAT5b protein were first incubated for 30 minutes at room temperature. Compounds were titrated at concentrations ranging from 1->60,000 nM and incubated for a further 15 minutes at which point fluorescence polarization measurements were taken in triplicate. The final well concentrations of the fluoresceinated-phosphopeptide and STAT5B were 10 nM and 250 nM, respectively. The same protocol was used for the analogous STAT3 FP assays, except that the 5-FAM-pYLPQTC (SEQ ID NO:1) peptide was used as a probe and the final STAT3 concentration was 150 nM in each well.
The resulting fluorescence polarization measurements were normalized and plotted against compound concentration on a logarithmic scale. The raw data was fitted with a standard dose-normalized response inhibition curve using GraphPad Prism 6 software. The IC50 values were converted to Ki values using Equation 1, which corrects for protein concentration and is a more accurate determination of inhibitory constants in a fluorescence polarization assay than the Cheng-Pruskoff equation.^15 All inhibitory constants and calculated Ki values are summarized in Table 1.
(§1) Modified Cheng-Pruskoff equation containing a correction factor for protein concentration.

[2] = target: T1, wildtype STAT5B protein (SH2 domain) (Homo sapiens, UniProt P51692); assay: Fluorescence polarization competitive binding, STAT5b; conditions: FP; for IC50: 5-FAM-GpYLVLDKW 10 nM, STAT5B 250 nM; for Ki: converted from IC50 with Equation 1
T1 sequence (P51692 1-787): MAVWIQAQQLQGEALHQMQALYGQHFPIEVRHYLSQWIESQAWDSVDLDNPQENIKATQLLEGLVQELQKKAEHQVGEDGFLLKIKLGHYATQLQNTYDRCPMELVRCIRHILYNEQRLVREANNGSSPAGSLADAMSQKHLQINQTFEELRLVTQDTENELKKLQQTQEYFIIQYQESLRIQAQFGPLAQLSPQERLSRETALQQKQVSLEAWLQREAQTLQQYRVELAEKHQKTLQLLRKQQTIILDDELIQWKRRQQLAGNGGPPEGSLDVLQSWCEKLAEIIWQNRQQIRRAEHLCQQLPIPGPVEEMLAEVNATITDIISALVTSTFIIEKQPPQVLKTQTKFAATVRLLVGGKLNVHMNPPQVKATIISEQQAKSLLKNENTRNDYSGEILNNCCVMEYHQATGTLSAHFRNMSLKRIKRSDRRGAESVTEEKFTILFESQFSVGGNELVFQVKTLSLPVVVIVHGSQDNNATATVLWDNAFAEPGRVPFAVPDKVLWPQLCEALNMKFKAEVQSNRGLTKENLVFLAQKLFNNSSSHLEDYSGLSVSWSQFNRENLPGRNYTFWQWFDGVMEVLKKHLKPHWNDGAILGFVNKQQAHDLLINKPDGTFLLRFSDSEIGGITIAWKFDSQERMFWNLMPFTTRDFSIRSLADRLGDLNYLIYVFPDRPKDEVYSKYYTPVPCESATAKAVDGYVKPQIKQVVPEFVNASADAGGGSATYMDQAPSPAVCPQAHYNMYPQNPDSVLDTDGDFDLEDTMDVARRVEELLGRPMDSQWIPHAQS
Description: Fluorescence assays were performed in flat black 384-well plates (Corning) and fluorescence polarization measurements were taken with the Infinite M1000 machine (Tecan, Crailsheim, Germany). The buffer conditions for all assays were 20 mM HEPES, 50 mM NaCl, 1 mM EDTA, 2 mM dithiothreitol, pH 7.5 and the final DMSO concentration in the wells was kept constant at 10%.
The point at which 80% of the fluoresceinated-phosphopeptide was bound was used as the optimal protein concentration required for the competitive fluorescent polarization assays.
Compounds were titrated at concentrations ranging from 1->60,000 nM and incubated for a further 15 minutes at which point fluorescence polarization measurements were taken in triplicate. The final well concentrations of the fluoresceinated-phosphopeptide and STAT5B were 10 nM and 250 nM, respectively.
The resulting fluorescence polarization measurements were normalized and plotted against compound concentration on a logarithmic scale. The raw data was fitted with a standard dose-normalized response inhibition curve using GraphPad Prism 6 software.
as §1

Chain of wildtype STAT3 protein (P40763 whole entry, species assumed, the tested form may be a part): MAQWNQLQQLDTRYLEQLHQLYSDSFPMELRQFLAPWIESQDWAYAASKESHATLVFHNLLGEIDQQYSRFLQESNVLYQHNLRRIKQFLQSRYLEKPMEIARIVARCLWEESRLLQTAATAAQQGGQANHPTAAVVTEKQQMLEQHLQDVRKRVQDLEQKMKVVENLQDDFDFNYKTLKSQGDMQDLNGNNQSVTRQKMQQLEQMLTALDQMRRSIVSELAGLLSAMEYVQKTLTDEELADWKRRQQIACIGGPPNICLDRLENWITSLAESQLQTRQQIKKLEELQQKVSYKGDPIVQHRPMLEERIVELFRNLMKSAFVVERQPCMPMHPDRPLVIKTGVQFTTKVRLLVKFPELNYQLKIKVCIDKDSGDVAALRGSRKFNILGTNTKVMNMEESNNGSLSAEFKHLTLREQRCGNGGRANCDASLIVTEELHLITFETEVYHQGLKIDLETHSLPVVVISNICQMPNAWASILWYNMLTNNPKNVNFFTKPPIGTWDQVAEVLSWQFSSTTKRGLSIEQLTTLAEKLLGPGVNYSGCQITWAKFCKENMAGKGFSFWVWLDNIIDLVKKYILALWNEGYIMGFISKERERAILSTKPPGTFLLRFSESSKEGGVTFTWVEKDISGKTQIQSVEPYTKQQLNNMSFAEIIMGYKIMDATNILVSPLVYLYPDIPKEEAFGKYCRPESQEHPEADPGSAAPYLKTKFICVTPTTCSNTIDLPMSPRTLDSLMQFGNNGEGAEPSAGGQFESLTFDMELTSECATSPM

Structure (SMILES)	Ki [1] [µM]	IC50 [2] [µM]	Ki [2] [µM]
Cc1cc(C)c(S(=O)(=O)N(CC(=O)N(Cc2ccc3ccccc3c2)c2ccc(C(=O)O)c(O)c2)Cc2ccc(Cl)cc2)c(C)c1 [Compound 13c, 4-(2-((N-(4-chlorobenzyl)-2,4,6-trimethylphenyl)sulfonamido)-N-(naphthalene-2-ylmethyl)acetamido)-2-hydroxybenzoic Acid]	> 60	8.2	3.24
O=C(O)c1ccc(N(Cc2ccc3ccccc3c2)C(=O)CN(Cc2ccc(Cl)cc2)S(=O)(=O)c2c(F)c(F)c(F)c(F)c2F)cc1O [Compound 13d, 4-(2-((N-(4-chlorobenzyl)-2,3,4,5,6-pentafluorophenyl)sulfonamido)-N-(-naphthalene-2-ylmethyl)acetamido)-2-hydroxybenzoic Acid]	> 60	3.95	1.56
Cc1cc(C)c(S(=O)(=O)N(CC(=O)N(Cc2cc(C(C)(C)C)cc(C(C)(C)C)c2)c2ccc(C(=O)O)c(O)c2)Cc2ccc(Cl)cc2)c(C)c1 [Compound 13b, 4-(2-((N-(4-chlorobenzyl)-2,4,6-trimethylphenyl)sulfonamido)-N-(3,5-di-tert-butylbenzyl)acetamido)-2-hydroxybenzoic Acid]	> 60	6.53	2.57
O=c1ccoc2ccccc12 [Chromone, reference compound]			> 60
